Where two headings read alike, the source gives them in different places.
Columns and labels:
[1] = system: Key Grass and Sedge Weeds as well as Grass Crops; assay: Post-emergent Test II herbicidal activity (Table 16); assay type: in vivo; details: post-emergence, 336 h, 14 days after application; for pest or weed control at 35 g/ha: 35 g ai/ha; for pest or weed control at 70 g/ha: 70 g ai/ha; for pest or weed control at 140 g/ha: 140 g ai/ha
Summary of the method: (§1)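 Plants at first-second true leaf stage, grown 7-21 d in greenhouse (~15 h photoperiod, 23-29 °C day), were track-sprayed at 187 L/ha with compound in acetone/DMSO/water/isopropanol/crop oil/Triton X-155 at a high rate plus 1/2× to 1/16× dilutions. Injury scored visually after 14 d versus untreated plants, 0 (none) to 100% (complete kill).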

[2] = system: Key Broadleaf Weed and Crop Species; assay: Post-emergent Test II herbicidal activity (Table 15); assay type: in vivo; details: post-emergence, 336 h, 14 d; for pest or weed control at 35 g/ha: 35 g ai/ha; for pest or weed control at 70 g/ha: 70 g ai/ha; for pest or weed control at 140 g/ha: 140 g ai/ha
Summary of the method: as §1

[3] = Cyperus esculentus, yellow nutsedge (Cyperus esculentus), read-out: Visual Growth Reduction (%) 14 Days After Application CYPES
[4] = Echinochloa crus-galli, barnyardgrass (Echinochloa crus-galli), read-out: Visual Growth Reduction (%) 14 Days After Application ECHCG
[5] = Oryza sativa, rice (Oryza sativa), read-out: Visual Growth Reduction (%) 14 Days After Application ORYSA
[6] = Setaria faberi, giant foxtail (Setaria faberi), read-out: Visual Growth Reduction (%) 14 Days After Application SETFA
[7] = Triticum aestivum, wheat, spring (Triticum aestivum), read-out: Visual Growth Reduction (%) 14 Days After Application TRZAS
[8] = Zea mays, maize, corn (Zea mays), read-out: Visual Growth Reduction (%) 14 Days After Application ZEAMX
[9] = Abutilon theophrasti, velvetleaf (Abutilon theophrasti), read-out: Visual Growth Reduction (%) 14 Days After Application, ABUTH
[10] = Amaranthus retroflexus, redroot pigweed (Amaranthus retroflexus), read-out: Visual Growth Reduction (%) 14 Days After Application, AMARE
[11] = Brassica napus, oilseed rape, canola (Brassica napus), read-out: Visual Growth Reduction (%) 14 Days After Application, BRSNN
[12] = Chenopodium album, lambsquarters (Chenopodium album), read-out: Visual Growth Reduction (%) 14 Days After Application, CHEAL
[13] = Euphorbia heterophylla, wild poinsettia (Euphorbia heterophylla), read-out: Visual Growth Reduction (%) 14 Days After Application, EPHHL
[14] = Helianthus annuus, sunflower (Helianthus annuus), read-out: Visual Growth Reduction (%) 14 Days After Application, HELAN

SMILES | pest or weed control at 35 g/ha [1, 4] | pest or weed control at 70 g/ha [1, 4] | pest or weed control at 140 g/ha [1, 4] | pest or weed control at 35 g/ha [1, 5] | pest or weed control at 70 g/ha [1, 5] | pest or weed control at 140 g/ha [1, 5] | pest or weed control at 35 g/ha [1, 6] | pest or weed control at 70 g/ha [1, 6] | pest or weed control at 140 g/ha [1, 6] | pest or weed control at 35 g/ha [1, 7] | pest or weed control at 70 g/ha [1, 7] | pest or weed control at 140 g/ha [1, 7] | pest or weed control at 35 g/ha [1, 8] | pest or weed control at 70 g/ha [1, 8] | pest or weed control at 140 g/ha [1, 8] | pest or weed control at 35 g/ha [2, 9] | pest or weed control at 70 g/ha [2, 9] | pest or weed control at 140 g/ha [2, 9] | pest or weed control at 35 g/ha [2, 10] | pest or weed control at 70 g/ha [2, 10] | also measured
COC(=O)c1nc(-c2ccc3ccsc3c2)cc(N)c1Cl [Compound 3.15] | 75 to 84% | 75 to 84% | 95 to 100% | 0 to 29% | 0 to 29% | 0 to 29% | 0 to 29% | 0 to 29% | 0 to 29% | 0 to 29% | 0 to 29% | 0 to 29% | 60 to 74% | 60 to 74% | 60 to 74% | 85 to 94% | 95 to 100% | 95 to 100% | 95 to 100% | 95 to 100% | pest or weed control at 35 g/ha [1, 3]: 0 to 29%; pest or weed control at 70 g/ha [1, 3]: 0 to 29%; pest or weed control at 140 g/ha [1, 3]: 0 to 29%; pest or weed control at 140 g/ha [2, 10]: 95 to 100%; pest or weed control at 35 g/ha [2, 11]: 30 to 44%; pest or weed control at 70 g/ha [2, 11]: 45 to 59%; pest or weed control at 140 g/ha [2, 11]: 45 to 59%; pest or weed control at 35 g/ha [2, 12]: 85 to 94%; pest or weed control at 70 g/ha [2, 12]: 85 to 94%; pest or weed control at 140 g/ha [2, 12]: 95 to 100%; pest or weed control at 35 g/ha [2, 13]: 75 to 84%; pest or weed control at 70 g/ha [2, 13]: 75 to 84%; pest or weed control at 140 g/ha [2, 13]: 85 to 94%; pest or weed control at 35 g/ha [2, 14]: 60 to 74%; pest or weed control at 70 g/ha [2, 14]: 60 to 74%; pest or weed control at 140 g/ha [2, 14]: 85 to 94%
COC(=O)c1nc(-c2ccc3ocnc3c2)c(F)c(N)c1Cl [Compound 5.01] | 75 to 84% | 75 to 84% | 85 to 94% | 0 to 29% | 0 to 29% | 0 to 29% | 0 to 29% | 0 to 29% | 0 to 29% | 0 to 29% | 0 to 29% | 0 to 29% | 0 to 29% | 0 to 29% | 0 to 29% | 60 to 74% | 60 to 74% | 60 to 74% | 75 to 84% | 85 to 94% | pest or weed control at 140 g/ha [2, 10]: 85 to 94%; pest or weed control at 35 g/ha [2, 11]: 85 to 94%; pest or weed control at 70 g/ha [2, 11]: 95 to 100%; pest or weed control at 140 g/ha [2, 11]: 95 to 100%; pest or weed control at 35 g/ha [2, 12]: 60 to 74%; pest or weed control at 70 g/ha [2, 12]: 85 to 94%; pest or weed control at 140 g/ha [2, 12]: 85 to 94%; pest or weed control at 70 g/ha [2, 13]: 95 to 100%; pest or weed control at 35 g/ha [2, 14]: 85 to 94%; pest or weed control at 70 g/ha [2, 14]: 85 to 94%; pest or weed control at 140 g/ha [2, 14]: 95 to 100%

— patent US20170050957A1, “4-AMINO-6-(HETEROCYCLIC)PICOLINATES AND 6-AMINO-2-(HETEROCYCLIC)PYRIMIDINE-4-CARBOXYLATES AND THEIR USE AS HERBICIDES” (Dow AgroSciences LLC, priority 2013, published 2017)
